Experimental data taken from patent US11254686B1 (Corvus Pharmaceuticals, Inc., priority 2017, dated 2022).
pIC50: −log10 of the molar value. Read-outs that look alike come from different tables or passages of the source.

Experiments:
[1] = Hepatocyte (Hep) intrinsic clearance, human; type: in vitro ADME; conditions: hepatocytes
[2] = Hepatocyte (Hep) intrinsic clearance, rat; type: in vitro ADME; conditions: hepatocytes
adenosine A2A receptor = adenosine A2A receptor (Homo sapiens (Human), UniProt P29274); experiment: Adenosine receptor activity assay (Table 1), A2A activity; type: biochemical; conditions: read-out: Ave A2A cAMP IC50
adenosine A2B receptor = adenosine A2B receptor (Homo sapiens (Human), UniProt P29275); experiment: Adenosine receptor activity assay (Table 1), A2B activity; type: biochemical; conditions: for pIC50: read-out: Ave A2B cAMP IC50
adenosine A1 receptor [3] = biological target: T1, adenosine A1 receptor (Homo sapiens (Human), UniProt P30542); experiment: A1 cAMP IC50 assay (Table 1); type: biochemical
adenosine A3 receptor [4] = biological target: T2, adenosine A3 receptor (Homo sapiens (Human), UniProt P0DMS8); experiment: A3 cAMP IC50 assay (Table 1); type: biochemical
adenosine A3 receptor [5] = biological target: T2, adenosine A3 receptor; experiment: Adenosine receptor activity assay (Table 1), A3 cAMP; type: biochemical
adenosine A1 receptor [6] = biological target: T1, adenosine A1 receptor; experiment: Adenosine receptor activity assay (Table 1), A1 cAMP; type: biochemical
[7] = A2A activity to A2B activity (A2A/A2B)
[8] = A2A activity to the A2B activity, A2A/A2B

adenosine A2B receptor, sequence (P29275 whole entry): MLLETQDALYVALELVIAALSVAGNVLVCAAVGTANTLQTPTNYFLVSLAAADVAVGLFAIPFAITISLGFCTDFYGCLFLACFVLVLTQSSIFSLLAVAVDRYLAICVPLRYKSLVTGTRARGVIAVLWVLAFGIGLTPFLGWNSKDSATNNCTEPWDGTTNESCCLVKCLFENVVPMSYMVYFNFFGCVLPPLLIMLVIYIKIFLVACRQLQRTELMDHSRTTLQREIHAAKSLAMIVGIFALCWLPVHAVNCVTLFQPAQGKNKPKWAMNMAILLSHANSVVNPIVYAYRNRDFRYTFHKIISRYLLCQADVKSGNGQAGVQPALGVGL
T2 sequence (P0DMS8 whole entry): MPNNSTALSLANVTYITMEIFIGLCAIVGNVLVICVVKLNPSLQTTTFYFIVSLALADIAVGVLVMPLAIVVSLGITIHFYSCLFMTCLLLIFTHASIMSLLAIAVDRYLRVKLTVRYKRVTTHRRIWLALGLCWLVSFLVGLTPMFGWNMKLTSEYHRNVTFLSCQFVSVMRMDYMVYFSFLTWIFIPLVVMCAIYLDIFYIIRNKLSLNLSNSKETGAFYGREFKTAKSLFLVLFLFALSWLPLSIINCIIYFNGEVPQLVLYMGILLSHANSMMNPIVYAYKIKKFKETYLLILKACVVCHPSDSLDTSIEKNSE
T1 sequence (P30542 whole entry): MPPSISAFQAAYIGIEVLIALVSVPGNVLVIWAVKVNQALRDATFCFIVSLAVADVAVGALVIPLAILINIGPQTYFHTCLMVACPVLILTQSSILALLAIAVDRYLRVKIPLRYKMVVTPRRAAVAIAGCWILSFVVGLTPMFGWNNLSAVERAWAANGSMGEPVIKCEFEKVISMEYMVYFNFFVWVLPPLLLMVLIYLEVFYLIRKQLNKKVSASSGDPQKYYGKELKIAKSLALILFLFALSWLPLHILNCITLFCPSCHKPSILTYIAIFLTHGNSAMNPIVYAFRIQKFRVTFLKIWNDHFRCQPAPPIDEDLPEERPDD
adenosine A2A receptor, sequence (P29274 whole entry): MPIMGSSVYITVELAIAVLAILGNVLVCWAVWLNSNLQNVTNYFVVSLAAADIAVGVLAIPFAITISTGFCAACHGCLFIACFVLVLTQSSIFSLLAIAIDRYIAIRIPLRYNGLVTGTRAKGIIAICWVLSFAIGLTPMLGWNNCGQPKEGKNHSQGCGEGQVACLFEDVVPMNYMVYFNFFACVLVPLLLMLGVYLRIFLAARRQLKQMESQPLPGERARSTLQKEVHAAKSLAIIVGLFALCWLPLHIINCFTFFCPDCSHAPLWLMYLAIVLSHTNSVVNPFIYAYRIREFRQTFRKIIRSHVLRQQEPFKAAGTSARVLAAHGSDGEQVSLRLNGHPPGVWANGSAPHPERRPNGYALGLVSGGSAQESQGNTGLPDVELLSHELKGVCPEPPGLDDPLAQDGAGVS

SMILES	hepatocyte CLint [1] [µL/min/1e6 cells]	hepatocyte CLint [2] [µL/min/1e6 cells]	pIC50 (adenosine A2A receptor)	Ratio (adenosine A2B receptor; [7])	pIC50 (adenosine A2B receptor)	pIC50 (adenosine A1 receptor [3])	pIC50 (adenosine A3 receptor [4])	pIC50 (adenosine A2A receptor; cAMP)	Ratio (adenosine A2B receptor; [8])	pIC50 (adenosine A2B receptor; cAMP)	pIC50 (adenosine A3 receptor [5])	pIC50 (adenosine A1 receptor [6])
C[C@H](Nc1nc(C(=O)N2CC[C@H](O)C2)c2sccc2n1)c1cccc(F)c1 [Example Z129, (2-(((S)-1-(3-Fluorophenyl)ethyl)amino)thieno[3,2-d]pyrimidin-4-yl)((S)-3-hydroxypyrrolidin-1-yl)methanone]	9.59	43	6.30 to 7.00	22.27	7.30 to 8.00	< 6.30	7.00 to 7.30					
COc1cc(F)cc(CNc2nc(C(=O)N3CC(O)C3)c3sccc3n2)c1 [Example Z137, (2-((3-Fluoro-5-methoxybenzyl)amino)thieno[3,2-d]pyrimidin-4-yl)(3-hydroxyazetidin-1-yl)methanone]	74.8	66.8	6.30 to 7.00	19.91	7.30 to 8.00	< 6.30	7.30 to 8.00					
C[C@H](Nc1nc(C(=O)N2CC(O)C2)c2sccc2n1)c1cccnc1 [Example Z138, (S)-(3-Hydroxyazetidin-1-yl)(2-((1-(pyridin-3-yl)ethyl)amino)thieno[3,2-d]pyrimidin-4-yl)methanone]	1.14	10.3	6.30 to 7.00	14.05	7.30 to 8.00	< 6.30	< 6.30					
COC1CN(C(=O)c2nc(N[C@@H](C)c3cccnc3)nc3ccsc23)C1 [Example Z139, (S)-(3-Methoxyazetidin-1-yl)(2-((1-(pyridin-3-yl)ethyl)amino)thieno[3,2-d]pyrimidin-4-yl)methanone]	7.67	24.2	7.00 to 7.30	8.08	> 8.00	< 6.30	< 6.30					
N#Cc1cncc(CNc2nc(C(=O)N3CCCC3)c3sccc3n2)c1 [Example Z141, 5-(((4-(Pyrrolidine-1-carbonyl)thieno[3,2-d]pyrimidin-2-yl)amino)methyl)nicotinonitrile]	38.7	102	< 6.30	35.53	7.30 to 8.00	< 6.30	< 6.30					
C[C@H](Nc1nc(C(=O)NC2CCC2)c2sccc2n1)c1ccccn1 [Example Z147, (S)—N-Cyclobutyl-2-((1-(pyridin-2-yl)ethyl)amino)thieno[3,2-d]pyrimidine-4-carboxamide]	43.5	68.3	7.30 to 8.00	2.82	> 8.00	< 6.30	6.30 to 7.00					
CNc1cc2nc(N[C@@H](C)c3cccnc3)nc(C(=O)N3CCCC3)c2s1 [Example Z152, (S)-(6-(Methylamino)-2-((1-(pyridin-3-yl)ethyl)amino)thieno[3,2-d]pyrimidin-4-yl)(pyrrolidin-1-yl)methanone]	12.3	38.3	6.30 to 7.00	53.70	> 8.00	< 6.30	7.00 to 7.30					
C[C@H](Nc1nc(C(=O)N2CCC2)c2sccc2n1)c1cncc(F)c1 [Example Z164, (S)-Azetidin-1-yl(2-((1-(5-fluoropyridin-3-yl)ethyl)amino)thieno[3,2-d]pyrimidin-4-yl)methanone]	13.5	34	7.00 to 7.30	49.96	> 8.00	< 6.30	< 6.30					
C[C@H](Nc1nc(C(=O)N2CC[C@H](O)C2)c2sccc2n1)c1cncc(F)c1 [Example Z165, (2-(((S)-1-(5-Fluoropyridin-3-yl)ethyl)amino)thieno[3,2-d]pyrimidin-4-yl)((S)-3-hydroxypyrrolidin-1-yl)methanone]	5.66	14.8	< 6.30	73.68	> 8.00	< 6.30	< 6.30					
C[C@H](Nc1nc(C(=O)N2CC[C@@H](O)C2)c2sccc2n1)c1cncc(F)c1 [Example Z166, (2-(((S)-1-(5-Fluoropyridin-3-yl)ethyl)amino)thieno[3,2-d]pyrimidin-4-yl)((R)-3-hydroxypyrrolidin-1-yl)methanone]	4.51	16.6	< 6.30	62.32	7.30 to 8.00	< 6.30	< 6.30					

Second part, the compound after the results:

hepatocyte CLint [1] [µL/min/1e6 cells]	hepatocyte CLint [2] [µL/min/1e6 cells]	pIC50 (adenosine A2A receptor)	Ratio (adenosine A2B receptor; [7])	pIC50 (adenosine A2B receptor)	pIC50 (adenosine A1 receptor [3])	pIC50 (adenosine A3 receptor [4])	pIC50 (adenosine A2A receptor; cAMP)	Ratio (adenosine A2B receptor; [8])	pIC50 (adenosine A2B receptor; cAMP)	pIC50 (adenosine A3 receptor [5])	pIC50 (adenosine A1 receptor [6])	SMILES
55.6	43.7	6.30 to 7.00	26.40	> 8.00	< 6.30	< 6.30						O=C(NCCO)c1nc(NCc2cc(F)cc(F)c2)nc2ccsc12 [Example Z169, 2-((3,5-Difluorobenzyl)amino)-N-(2-hydroxyethyl)thieno[3,2-d]pyrimidine-4-carboxamide]
51.4	91.4	7.00 to 7.30	22.94	> 8.00	6.30 to 7.00	< 6.30						O=C(NC1CCC1)c1nc(NCc2cncc(F)c2)nc2ccsc12 [Example Z171, N-Cyclobutyl-2-(((5-fluoropyridin-3-yl)methyl)amino)thieno[3,2-d]pyrimidine-4-carboxamide]
24.9	23.7	6.30 to 7.00	37.09	> 8.00	< 6.30	< 6.30						O=C(NC1CC(O)C1)c1nc(NCc2cncc(F)c2)nc2ccsc12 (stereo not drawn) [Example Z183, 2-(((5-Fluoropyridin-3-yl)methyl)amino)-N-((1s,3s)-3-hydroxycyclobutyl)thieno[3,2-d]pyrimidine-4-carboxamide]
12	37	6.30 to 7.00	46.14	> 8.00	< 6.30	< 6.30						COC1CN(C(=O)c2nc(N[C@@H](C)c3cncc(F)c3)nc3ccsc23)C1 [Example Z185, (S)-(2-((1-(5-Fluoropyridin-3-yl)ethyl)amino)thieno[3,2-d]pyrimidin-4-yl)(3-methoxyazetidin-1-yl)methanone]
2.16	10	< 6.30	114.79	7.30 to 8.00	< 6.30	< 6.30						CNc1cc2nc(N[C@@H](C)c3cccnc3)nc(C(=O)N3CC[C@H](O)C3)c2s1 [Example Z188, ((S)-3-Hydroxypyrrolidin-1-yl)(6-(methylamino)-2-(((S)-1-(pyridin-3-yl)ethyl)amino)thieno[3,2-d]pyrimidin-4-yl)methanone]
10.1	23.7	7.00 to 7.30	34.96	> 8.00	< 6.30	< 6.30						C[C@H](Nc1nc(C(=O)NC[C@@H](C)O)c2sccc2n1)c1cncc(F)c1 [Example Z190, 2-(((S)-1-(5-Fluoropyridin-3-yl)ethyl)amino)-N—((R)-2-hydroxypropyl)thieno[3,2-d]pyrimidine-4-carboxamide]
10.6	26.7	6.30 to 7.00	45.25	> 8.00	< 6.30	< 6.30						C[C@H](O)CNC(=O)c1nc(N[C@@H](C)c2cncc(F)c2)nc2ccsc12 [Example Z191, 2-(((S)-1-(5-Fluoropyridin-3-yl)ethyl)amino)-N—((S)-2-hydroxypropyl)thieno[3,2-d]pyrimidine-4-carboxamide]
3.34	16.2	< 6.30	298.42	> 8.00	< 6.30	< 6.30						CNc1cc2nc(N[C@@H](C)c3cncc(F)c3)nc(C(=O)N3CC[C@H](O)C3)c2s1 [Example Z197, (2-(((S)-1-(5-Fluoropyridin-3-yl)ethyl)amino)-6-(methylamino)thieno[3,2-d]pyrimidin-4-yl)((S)-3-hydroxypyrrolidin-1-yl)methanone]
							7.30 to 8.00	1.22	7.30 to 8.00	6.30 to 7.00	< 6.30	Cc1cc2nc(N[C@@H](C)c3cncc(F)c3)nc(C(=O)N3CC(NC(=O)[C@H]4CCOC4)C3)c2s1 [Example Z599, (S)—N-(1-(2-(((S)-1-(5-Fluoropyridin-3-yl)ethyl)amino)-6-methylthieno[3,2-d]pyrimidine-4-carbonyl)azetidin-3-yl)tetrahydrofuran-3-carboxamide]
							7.30 to 8.00	1.90	> 8.00	6.30 to 7.00	< 6.30	C[C@H](Nc1nc(C(=O)N2CC(NC(=O)c3ccoc3)C2)c2sccc2n1)c1cncc(F)c1 [Example Z600, (S)—N-(1-(2-((1-(5-Fluoropyridin-3-yl)ethyl)amino)thieno[3,2-d]pyrimidine-4-carbonyl)azetidin-3-yl)furan-3-carboxamide]
							7.30 to 8.00	0.90	7.30 to 8.00	6.30 to 7.00	< 6.30	C[C@H](Nc1nc(C(=O)N2CC(NC(=O)c3ccccc3)C2)c2sccc2n1)c1cncc(F)c1 [Example Z601, (S)—N-(1-(2-((1-(5-Fluoropyridin-3-yl)ethyl)amino)thieno[3,2-d]pyrimidine-4-carbonyl)azetidin-3-yl)benzamide]
